In patent publication US5866570A, “Treatment of vascular leakage and related syndrome such as septic shock by administration of metalloproteinase inhibitors” (Wisconsin Alumni Research Foundation, priority 1994, dated 1999):

Legend:
[1] = test system: HT-1080 cells (human fibrosarcoma); assay: in vitro invasion assay through matrigel (Transwell); assay type: cell-based
Procedure: Razoxane, various bis(hydroxylated)(2,6-dioxopiperazine)s, and various hydrophobic analogs were tested in an in vitro assay for inhibition of tumor cell penetration of a reconstituted basement membrane, matrigel, isolated from the Englegbreth-Holm-Swarm (EHS) tumor (disclosed in Kleinman et al., Biochem. (1982), 24, 6188-6193) first described by Albini et al, Cancer Res. (1987) 47, 3234-3245. An 8 μm pore filter coated with matrigel separates a lower compartment containing a chemoattractant and an upper compartment containing the cells and test compound. In particular, the following compounds were tested: razoxane, (1α, 2α, 4α, 5α)-4,4'-(4,5-dihydroxy-1,2-cyclohexanediyl)bis(2,6-piperazinedione); (1α, 2α, 4β, 5β)-4,4'-(4,5-dihydroxy-1,2-cyclohexanediyl)bis(2,6-piperazinedione);(1β, 2α,4α,5α)-4,4'-(4,5-dihydroxy-1,2-cyclohexanediyl)bis(2,6-piperazinedione); (1β, 2α, 4α,5β)-4,4'-(4,5-dihydroxy-1,2-cyclohexanediyl)bis(2,6piperazinedione); (1α, 2β, 4α,5β)-4,4'-(4,5-dihydroxy-1,2cyclohexanediyl)bis(2,6-piperazinedione); N,N'-cyclohexane-1,2-diylbis[N(2-ethoxy-2-oxoethyl)]glycine; N,N'-4-cyclohexene-1,2-diylbis[N-(2-ethoxy-2-oxoethyl)-glycine ester; (3aα, 5β, 6β, 7aα)-4,4'-(hexahydro-2,2-dimethyl1,3-benzodioxole-5,6-diyl)bis(2,6-piperazinedione); (3aα, 5α, 6α, 7aα)-4,4'-(hexahydro-2,2-dimethyl-1,3-benzodioxole-5,6-diyl)bis(2,6- piperazinedione); (3aα, 5α, 6β, 7aα)-4,4'-(hexahydro-2,2-dimethyl-1,3-benzodioxole-5,6-diyl)bis-2,6- piperazinedione; (3aα, 5β, 6α, 7aβ)-4,4'-(hexahydro-2,2dimethyl-1,3-benzodioxole-5,6-diyl)bis(2,6-piperazinedione); and (3aα, 5α, 6β, 7aβ)-4,4'-(hexahydro-2,2-dimethyl-1,3-benzodioxole-5,6-diyl) bis(2,6piperazinedione). Metastatic cells are able to degrade the basement membrane protein barrier and migrate through the pores of the filter whereas non-metastatic cells remain on the upper surface. The cells that pass to the under side of the filter are then counted under a microscope. […] Variations of this assay have been used to correlate this in vitro invasion with metastatic potential in vivo (Albini et al. (Id.); Hendrix et al. Cancer Letters (1987); 38, 127-247; Repesh L. A., Invasion Metastasis (1989) 9, 192-208 to select for more highly invasive cells (Teranova et al., Proc. Nat. Acad. Sci., (1986), 83, 465, 464; Tullberg et al., Invasion Metastasis, (1989), 9, 13-26; Sefer et al., Biotechniques, (1990), 9, 324-331), and to test compounds for inhibition (Nakajima et al., Cancer Res. (1989), 49, 1698-1756).
This method has been improved to increase the number of assays which may be performed and analyzed per day. In particular, such improvement comprises the use of disposable Transwells (Costar) units described by Repesh et al., Invasion Metastasis, (1989), 9, 192-208, which consist of an 8 μm pore filter attached to an insert that fits in a 24 well culture plate. Matrigel concentration is titrated from zero to complete inhibition of motility of each invasive cell line used in the assay and for each batch of matrigel. The matrigel concentration which yields 50% or greater inhibition of motility in a 6 hr assay (usually from 15 to 50 μg of protein per filter) is chosen for determination of invasion. Motility of cells through the 8 μm filters is not by passive diffusion since the pore size is smaller than the cells, and is determined in the same chamber in the absence of matrigel. Motility is stimulated two-fold by the presence of fibroblast conditioned medium (3T3 cells) as a chemoattractant (data not shown). The cell lines used are HT-1080, a human fibrosarcoma, and MDA-MB-231, a human breast carcinoma (both available from the American Type Tissue Culture). These cell lines express both the 72 kD and the 92 kD collagenase type IV as determined by zymography (data not shown).
For inhibition studies, 5×10^5 cells are plated in 200 μl of DMEM+0.1% BSA+the inhibitor (or appropriate solvent control) into the upper chamber of the Transwell. […]

BALB/C mice = assay: septic shock induced by i.p. endotoxin (Salmonella abortus equi); assay type: in vivo; conditions: for Survival/Total Ratio after 24 h / Survival/Total Ratio after 48 h / Survival/Total Ratio after 72 h: endotoxin2 (Salmonella abortus equi) i.p., drug i.p. 1 h before, 9 h and 20 h after
Procedure: Effect of razoxane in preventing death due to endotoxin-induced septic shock. Twelve BALB/c mice (female, 10-12 weeks old, 18-20 g) were injected i.p. with endotoxin (Salmonella abortus equi) twice at time zero (70 μg/mouse) and 48 h (30 μg/mouse). Razoxane (2 mg/mouse, in 1% sodium carboxymethyl cellulose) was given i.p. three times, i.e., 1 h. before, 9 h. and 20 h. after injection of initial dose of endotoxin. Another twelve mice, injected with endotoxin as above, were treated with buffer solution (1 % sodium carboxymethyl cellulose) as negative controls. It can be seen therein that the majority of control mice were dead within 50 hours of the initial endotoxin administration. In contrast, approximately 80% of the razoxane treated mice were still alive after 50 hours. Moreover, about 60% of the razoxane treated mice were still alive 100 hours after endotoxin administration, and recovered later on.
Effect of Compound 80 in preventing death due to endotoxin-induced septic shock. Twenty BALB/c mice (female, 10-12 weeks old, 18-20 g) were injected i.p. with endotoxin (Salmonella abortus equi, 100 μg/mouse). Compound 80 (0.33 mg/mouse) was given i.p. to 10 mice three times, i.e., 1 hour before, 9 hours and 20 hours after injection of endotoxin. The other 10 mice were injected with diluents as negative controls. The number of the mice survived at different periods to time after endotoxin injection were recorded. (P<0.0002).

[2] = razoxane 2 mg/mouse i.p. three times, endotoxin 70 μg at 0 h and 30 μg at 48 h

## CC1(C)O[C@H]2C[C@H](N3CC(=O)NC(=O)C3)[C@@H](N3CC(=O)NC(=O)C3)C[C@@H]2O1 (relative stereo) [Compound 80, (3aα, 5β, 6α, 7aβ)-4,4'-(hexahydro-2,2-dimethyl-1,3-benzodioxole-5,6-diyl)bis(2,6-piperazinedione)]
[1]; Homo sapiens, HT-1080, at 125 μM, 6 hour assay, read-out: maximum inhibition of invasion
  inhibition at 125 µM: 62%
[1]; preliminary screen
  inhibition of invasion: inhibit invasion
[1]; preliminary screen, no matrigel
  effect on cell motility: without inhibiting cell motility
BALB/C mice
  Survival/Total Ratio after 24 h: 10/10
  Survival/Total Ratio after 48 h: 8/10
  Survival/Total Ratio after 72 h: 6/10

## CC(CN1CC(=O)NC(=O)C1)N1CC(=O)NC(=O)C1 (stereo not drawn) [razoxane]
[1]; from 250 μM to 1 mM
  consistent inhibition of invasion without effect on motility: could not be demonstrated
BALB/C mice
  Survival/Total Ratio after 24 h: 10/12
  Survival/Total Ratio after 48 h: 9/12
  Survival/Total Ratio after 72 h: 7/12
BALB/C mice; [2]
  treated mice still alive 100 hours after endotoxin administration: about 60%
  treated mice still alive after 50 hours: approximately 80%
